Test results reported in the NIST ThermoML archive (doi:10.1021/acs.jced.9b00078).

Assay: xn = mol fraction of the nth substance listed
Details: Liquid, Other PVT measurement

CCCCCCCCCCCCCCCC [hexadecane] + O=C=O
mass density [kg/m3]
Details	303.2 K	313.2 K	333.2 K	353.2 K	373.2 K	393.2 K	413.2 K	433.2 K	453.2 K	473.2 K
10000 kPa, x2 = 0.2555	780.45	773.23	758.92	744.43	729.96	715.39	700.19	685.46	670.23	654.67
10000 kPa, x2 = 0.3703	–	778.18	759.26	746.79	731.25	715.75	698.68	681.51	664.54	647.28
20000 kPa, x2 = 0.2555	787.34	780.1	766.68	753	739.28	725.96	712.05	698.1	684	670.22
20000 kPa, x2 = 0.3703	793.48	785.88	771.19	756.53	742.07	727.42	712.39	697.06	681.26	665.86
30000 kPa, x2 = 0.2555	794.56	787.59	774.7	761.96	749.11	736.15	723.64	710.65	697.79	684.48
30000 kPa, x2 = 0.3703	801.32	793.73	780.08	766.24	752.26	738.82	725.13	711.36	697.06	683.13
30000 kPa, x2 = 0.7348	839.16	828.9	807.53	785.71	763.15	741.75	718.23	696.05	671.94	647.71
30000 kPa, x2 = 0.8645	872.71	857.83	827.32	793.96	758.29	725.26	688.46	649.67	613.21	578.59
40000 kPa, x2 = 0.2555	800.47	793.9	781.61	769.42	757.25	745.02	732.84	721.13	708.66	696.75
40000 kPa, x2 = 0.3703	807.74	800.81	787.53	774.17	761.32	748.53	735.68	723.06	709.8	697.04
40000 kPa, x2 = 0.7348	848.5	839.65	821.38	800.32	779.76	758.8	738	717.02	695.98	675.69
40000 kPa, x2 = 0.8645	885.49	870.69	840.65	812.52	785.33	757.98	729.63	702.92	673.61	644.14
50000 kPa, x2 = 0.2555	807.2	800.32	788.15	776.26	764.83	753.11	741.57	730.38	718.53	707.53
50000 kPa, x2 = 0.3703	814.58	807.06	794.36	782.12	769.45	756.96	744.66	732.8	720.85	708.83
50000 kPa, x2 = 0.7348	860.91	850.12	831.42	812.92	793.19	773.38	755.78	736.34	717.38	698.15
50000 kPa, x2 = 0.8645	900.22	885.44	859.09	833.73	810.58	783.06	759.09	735.07	709.83	685.57
